Earlier results in patent publication US9636300B2, “Racecadotril lipid compositions” (JOHNSON & JOHNSON CONSUMER INC., priority 2013, dated 2017).

Details: room temperature conditions

water solubility: about 10 micrograms/ml
SMILES: CC(=O)SCC(Cc1ccccc1)C(=O)NCC(=O)OCc1ccccc1 (stereo not shown) [Racecadotril]
